Earlier results on 18 molecules are cited in patent US10948221B1 (priority 2020, dated 2021).

The data set deals with rat. Conditions: in vivo.
Regarding `O=N[O-].[Ag+]` [AgNO2], the “LD50 (oral-rat; mg/kg)” value is given as “Toxic”.
`CN.Cl` [CH3NH3Cl]: the “LD50 (oral-rat; mg/kg)” value was 1600 mg/kg.
With `N#C[O-].[K+]` [KCNO], the “LD50 (oral-rat; mg/kg)” value is reported as 841 mg/kg.
On to `[K+].[O-][Cl+2]([O-])[O-]` [KClO3], for which the “LD50 (oral-rat; mg/kg)” value is recorded as 1870 mg/kg.
For `[K+].[O-][Cl+3]([O-])([O-])[O-]` [KClO4], the “LD50 (oral-rat; mg/kg)” value is 100 mg/kg.
For the molecule `O=N[O-].[K+]` [KNO2], the “LD50 (oral-rat; mg/kg)” value is on record as 250 mg/kg.
For `[Na+].[O-][Cl+2]([O-])[O-]` [NaClO3], the “LD50 (oral-rat; mg/kg)” value was 1200 mg/kg.
On to `[Na+].[O-][Cl+3]([O-])([O-])[O-]` [NaClO4], for which the “LD50 (oral-rat; mg/kg)” value was 2100 mg/kg.
Regarding `[F-].[Na+]` [NaF], the “LD50 (oral-rat; mg/kg)” value is reported as 52 mg/kg.
As for `O=N[O-].[Na+]` [NaNO2], the “LD50 (oral-rat; mg/kg)” value is 180 mg/kg.
On to AgNO3, for which the “LD50 (oral-rat; mg/kg)” value is “Toxic”.
Consider BaCl2•2H2O, for which the “LD50 (oral-rat; mg/kg)” value is reported as 118 mg/kg.
Turning to K2SO4 [Solute K2SO4], the “LD50 (oral-rat; mg/kg)” value is 6600 mg/kg.
In the case of KIO3, the “LD50 (oral-rat; mg/kg)” value is reported as 136 mg/kg.
KMnO4: the “LD50 (oral-rat; mg/kg)” value is recorded as 1090 mg/kg.
On to MgSO4•7H2O, for which the “LD50 (oral-rat; mg/kg)” value is listed as 2840 mg/kg.
With NH4NO3, the “LD50 (oral-rat; mg/kg)” value was 2217 mg/kg.
On to Na3PO4, for which the “LD50 (oral-rat; mg/kg)” value is on record as 7400 mg/kg.
